These results are taken from patent publication US20240381870A1 (priority 2024, published 2024).

The test system of one experiment is wheat scab. It is filed as in vivo. The conditions noted are these: in words; field experiments of both sites (Tables 3 and 4).
The next experiment deals with Fusarium graminearum. It is filed as cell-based. The note with it: mycelial growth inhibition, PDA, 25° C.
The subject of experiment [1] is Fusarium pseudogramineaqum. It is filed as cell-based.

Consider `O=C(NC1CCC1c1ccc(Cl)cc1Cl)c1cccnc1C(F)(F)F` (stereo not drawn) [Cyclobutrifluram(C), Cyclobutrifluram], for which the “control effect on wheat scab” value in the experiment with wheat scab is “significant control effect”. In addition, the EC50 ppm was 0.3744 ppm with Fusarium graminearum and 0.1276 ppm in experiment [1].

Consider `CCCN(CCOc1c(Cl)cc(Cl)cc1Cl)C(=O)n1ccnc1` [Prochloraz(P), Prochloraz], for which, in the experiment on wheat scab, the “control effect on wheat scab” value is recorded as “significant control effect”. Also, the EC50 ppm in the experiment with Fusarium graminearum worked out at 0.2663 ppm; in experiment [1], 0.2311 ppm.
